One data set deals with T1, human sEH (Homo sapiens, UniProt P34913).
T1 sequence (P34913 1-555): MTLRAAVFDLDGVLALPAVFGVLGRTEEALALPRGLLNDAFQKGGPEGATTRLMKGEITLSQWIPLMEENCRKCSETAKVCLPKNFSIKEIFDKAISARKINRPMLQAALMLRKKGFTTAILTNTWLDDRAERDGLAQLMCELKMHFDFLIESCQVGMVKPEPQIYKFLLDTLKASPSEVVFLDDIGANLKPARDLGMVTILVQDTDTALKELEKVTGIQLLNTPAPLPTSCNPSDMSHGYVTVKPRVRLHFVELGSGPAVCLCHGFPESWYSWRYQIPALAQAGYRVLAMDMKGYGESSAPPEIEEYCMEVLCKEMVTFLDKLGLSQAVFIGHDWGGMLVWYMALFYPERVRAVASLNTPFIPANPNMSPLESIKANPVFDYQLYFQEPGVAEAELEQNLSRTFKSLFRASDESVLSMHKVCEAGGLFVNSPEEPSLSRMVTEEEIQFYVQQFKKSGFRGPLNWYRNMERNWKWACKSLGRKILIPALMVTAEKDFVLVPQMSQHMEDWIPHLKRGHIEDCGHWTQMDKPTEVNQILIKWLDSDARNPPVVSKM
The data set can be described thus: Fluorescent. Type of data set: biochemical. The following applies: for reduced inhibition compared to N,N,O-trimethylated oxyoxalamide derivatives: Conclusions, vs trimethylated derivatives (24, 26, 31); for improvement in inhibition in comparison with compound 27: ratio of IC50 vs compound 27; for drop in inhibition compared to compound 6: ratio of IC50 vs compound 6.

Data set [1] can be described thus: Water solubility by light scattering. The settings on record: vs AUDA. Type of data set: physicochemical.

Bounds are passed on as bounds.

On to `O=C(NOCc1ccccc1)C(=O)NC12CC3CC(CC(C3)C1)C2` [Compound 4, N^1-(Adamant-1-yl)-N^2-(benzyloxy)oxalamide], for which, at human sEH, the “inhibition of human sEH, result in words” value is given as “not effective for producing inhibition activity”.

Consider `O=C(NCCCc1ccccc1)C(=O)NOCc1ccccc1` [Compound 3, N^1-(Benzyloxy)-N^2-(3-phenylpropyl)oxalamide], for which the “inhibition of human sEH, result in words” value against human sEH is recorded as “not effective for producing inhibition activity”.

For the compound `O=C(CNC1C2CC3CC(C2)CC1C3)NOCc1ccccc1` (stereo not drawn) [Compound 16, N-(Benzyloxy)-2-(adamant-2-ylamino)acetamide], the “inhibition of human sEH, result in words” value against human sEH is reported as “no inhibition”.

Consider `O=C(NOCc1ccccc1)C(=O)NC1C2CC3CC(C2)CC1C3` (stereo not drawn) [Compound 6, N^1-(Adamant-2-yl)-N^2-(benzyloxy)oxalamide], for which the “inhibition potency lower compared to AUDA” value on human sEH (ratio of IC50 vs AUDA) was “approximately 15 fold”. Moreover, the “improvement in inhibition potency compared to compound 5” value at human sEH (ratio of IC50 vs compound 5) worked out at 16 fold.

As for `CON(C)C(=O)C(=O)Nc1ccc(CNC(=O)NC23CC4CC(CC(C4)C2)C3)cc1` [Compound 30, 1-(4-(N^2-Methyl-N^2-(methyloxy)oxalamido)benzyl)-3-adamantylurea], at human sEH, the “reduced inhibition compared to N,N,O-trimethylated oxyoxalamide derivatives” value is given as not above 10 fold and the “improvement in inhibition in comparison with compound 27” value (from here on “improvement in inhibition in comparison”) came to 3 fold.

In the case of `CON(C)C(=O)C(=O)N(C)c1ccc(CNC(=O)NC23CC4CC(CC(C4)C2)C3)cc1` [Compound 31, 1-(4-(N^1-Methyl-N^2-methyl-N^2-(methyloxy)oxalamido)-benzyl)-3-adamantylurea], the “improvement in inhibition in comparison” value at human sEH amounted to 13 fold. The “higher solubility in water than AUDA” value in data set [1] is listed as 10 fold.

As for `CON(C)C(=O)C(=O)Nc1ccc(CNC(=O)C23CC4CC(CC(C4)C2)C3)cc1` [Compound 20, N-(4-(N^2-Methyl-N^2-(methyloxy)oxalamido)benzyl)adamantanecarboxamide], the “improved potency compared to O-methyl derivative (18)” value at human sEH (ratio of IC50 vs compound 18) is given as 1.5 fold.

As for `CONC(=O)C(=O)Nc1ccc(CNC(=O)NC23CC4CC(CC(C4)C2)C3)cc1` [Compound 28, 1-(4-(N^2-Methyloxyoxalamido)benzyl)-3-adamantylurea], on human sEH, the “reduced inhibition compared to N,N,O-trimethylated oxyoxalamide derivatives” value is listed as not above 10 fold and the “improvement in inhibition in comparison” value is 2.5 fold.

For `O=C(NOCCCc1ccccc1)C(=O)NC1C2CC3CC(C2)CC1C3` (stereo not drawn) [Compound 12, N^1-(Adamant-2-yl)-N^2-(3-phenylpropyloxy)oxalamide], the “drop in inhibition compared to compound 6” value at human sEH is reported as “approximately 10 fold”. In addition, the “better inhibition than compound 11” value on human sEH (ratio of IC50 vs compound 11) was “approximately 8 fold”.

In the case of `O=C(NCC12CC3CC(CC(C3)C1)C2)C(=O)NOCc1ccccc1` [Compound 5, N^1-(Adamant-1-ylmethyl)-N^2-(benzyloxy)oxalamide], the “inhibition of human sEH, result in words” value against human sEH is given as “moderate inhibition”.

For the compound `CN(OCc1ccccc1)C(=O)C(=O)NC1C2CC3CC(C2)CC1C3` (stereo not drawn) [Compound 13, N^1-(Adamant-2-yl)-N^2-(benzyloxy)-N^2-methyloxalamide], the “drop in inhibition compared to compound 6” value on human sEH is “approximately 60 fold”.

Turning to `CC(C)(C)ONC(=O)C(=O)Nc1ccc(CNC(=O)C23CC4CC(CC(C4)C2)C3)cc1` [Compound 19, N-(4-(N^2-t-Butyloxyoxalamido)benzyl)adamantanecarboxamide], at human sEH (ratio of IC50 vs compound 18), the “lowered inhibition compared to compound 18” value is listed as 1.5 fold.

In the case of `O=C(NOC1CCCCO1)C(=O)Nc1ccc(CNC(=O)C23CC4CC(CC(C4)C2)C3)cc1` (stereo not drawn) [Compound 22, N-(4-(N^2-(Tetrahydro-2H-pyran-2-yloxy)oxalamido)benzyl) adamantanecarboxamide], the “inhibition of human sEH, result in words” value against human sEH is recorded as “complete loss in inhibition”.

Regarding `CON(C)C(=O)C(=O)N(C)c1ccc(CNC(=O)C23CC4CC(CC(C4)C2)C3)cc1` [Compound 21, N-(4-(N^1-Methyl-N^2-methyl-N^2-(methyloxy)oxalamido)-benzyl)adamantanecarboxamide], the “improved potency compared to O-methyl derivative (18)” value at human sEH (ratio of IC50 vs compound 18) was 1.5 fold.

As for `O=C(NOc1ccccc1)C(=O)NC1C2CC3CC(C2)CC1C3` (stereo not drawn) [Compound 7, N^1-(Adamant-2-yl)-N^2-(phenyloxy)oxalamide], the “inhibition of human sEH, result in words” value on human sEH is “no inhibition”.

Regarding `CONC(=O)C(=O)Nc1ccc(CNC(=O)C23CC4CC(CC(C4)C2)C3)cc1` [Compound 18, N-(4-(N^2-Methyloxyoxalamido)benzyl)adamantanecarboxamide], on human sEH (ratio of IC50 vs compound 17), the “enhancement in inhibition compared to compound 17” value is reported as not below 3 fold.

The values above are taken from publication PMC4172381 (Bioorganic & medicinal chemistry, 2014).
